Laboratory results as given in patent US20030170252A1, “Antibody compositions specific for p33QIK and p63Krs1 polypeptides and uses thereof” (priority 2000, published 2003).
Read-outs that look alike come from different tables or passages of the source. Starred links: 1 amine or outer side, 2 acyl side, 3 side chain; linkers in the order of their positions; H or OH if unused. Positions of bridges follow the written chain, without caps; N, C: chain ends. Non-standard residues stand in square brackets, D forms with d. Residues, ends and D or L forms follow the SMILES beside them. Chains are numbered I, II in the order given. *: point of attachment. Actinocin(9to1) = Cc1c2oc3c(C)ccc(C(=O)[*:1])c3nc-2c(C(=O)[*:2])c(N)c1=O; NMeV = CN[C@H](C(=O)O)C(C)C; Cbz = O=C(OCc1ccccc1)*; Sar = CNCC(=O)O; CH2F = FC*

Columns and labels:
p33^QIK = assay: In-gel kinase assay (MBP substrate) of p33^QIK activity in treated NIH3T3 cultures; format: cell-based, mouse; conditions: for induction of p33^QIK activity: cultures preincubated with caspase inhibitor prior to serum starvation and osmotic stress; for TPA-induced deactivation of p33^QIK: quiescent NIH3T3, co-treatment with 100 ng/ml TPA; for serum-induced down-regulation of p33^QIK activity: quiescent NIH3T3, co-treatment with 10% serum
Procedure: (§1) Mouse NIH3T3 fibroblast cultures were maintained in Dulbecco's modified Eagle's medium (DMEM)(BRL/GIBCO, Grand Island, N.Y.) supplemented with 5% calf serum, 50 units/ml penicillin, and 5 mcg/ml streptomycin, and cultivated at 37° C.
(§2) Mouse 10T1/2 fibroblast cultures were maintained in Basal medium Eagle (BRL/GIBCO, Grand Island, N.Y.) supplemented with 10% heat-inactivated fetal bovine serum, 50 U/ml penicillin, and 5 μg/ml streptomycin, and cultivated at 37° C. Cells synchronized in quiescent state were growth-arrested by serum starvation for 48 hr. Actinomycin D (ActD), cycloheximide (CHXM), 12-0-tetradecanoylphorbol 13-acetate (TPA), staurosporine (STSP) (Sigma Chemical, St. Louis, Mo.), sodium fluoride (NaF), sodium orthovanadate (Na3VO4) (Fisher Scientific, Pittsburgh, Pa.), and FR901228 (FR)(NCI, Frederick, Md.) were diluted in cultured medium before treatment of cultured cells. A broad range caspase inhibitor Z-Asp-[(2,6-dichlorobenzoyl)oxy]methane (Z-D-CH2-DCB) (Dolle et al., 1994; Mashima et al., 1995)(CALBIOCHEM, La Jolla, Calif.) was dissolved in dimethyl sulfoxide and diluted in cultured medium for treatment. Recombinant human Caspase-3 was purchased from Alexis Biochemicals (San Diego, Calif.). Protein phosphatase 1 (PP1) and Lambda protein phosphatase (λPPase) were purchased from NE BioLabs (Beverly, Mass.). Production of rabbit polyclonal antibody Ab-KQ to p63^Krsl and p33^QIK was made using peptide sequences of Krsl as antigens (Alpha Diagnostic International, San Antonio, Tex.). UV irradiation was carried out using a UV Crosslinker (Stratagene, La Jolla, Calif.).
(§3) Cells were lysed with 30 strokes of a tight-fitting Dounce homogenizer in lysis A buffer (10 mM KH2PO4, 1 mM EDTA, 5 mM EGTA, 10 mM MgCl2, 50 mM […], 1 mM Na3VO4, 2 mM dithiothreitol) (Wang et al., 1992). Cytoplasmic proteins (S20) were isolated from the supernatants after centrifugation of crude lysates at 20,000 ×g for 20 min. Protein concentration in S20 was measured by using the BCA assay (Pierce, Rockford, Ill.). Immunoprecipitation of p33^QIK was carried out by incubation of S20 with the specific antibody Ab-KQ at 0° C. for 1 hr. Immune complexes were adsorbed to Pansorbin (Staphylococcus aureus) (CALBIOCHEM, La Jolla, Calif.) at 0° C. for 30 min and washed with STE buffer (50 mM Tris-HCl, pH 7.0, 150 mM NaCl, 1 mM Na2 EDTA) supplemented with 0.1 mM DTT and 0.1% NP-40 and ST buffer supplemented with 1 mM DTT.
(§4) MBP (BRL/GIBCO, Grand Island, N.Y.) was used as a substrate in the assay and the in-gel kinase assay was performed as previously described (Wang et al., 1992). Briefly, 10% SDS-polyacrylamide gel (SDS-PAG) was copolymerized with 0.4 mg/ml MBP. Cellular proteins were resolved in the MBP-immobilized SDS-PAG, followed by rinsing the gel with 20% isopropanol in buffer B (100 mM Tris, pH 8, 5 mM β-mercaptoethanol). The gel was denatured in buffer B supplemented with 6 M guanidine-HCl and renatured with buffer B supplemented with 0.04% Tween 40 (Kameshita and Fujisawa, 1989). Kinase reaction was carried out by incubating the gel with kinase buffer (20 Mm Tris, pH 7.2, 10 mM MgCl2, 15 mM β-glycerolphosphate) supplemented with 50 μM γATP and 50 μCi of [γ-^32P]ATP at 22° C. for 30 min. The gel was washed with 1% sodium pyrophosphate in 5% trichloroacetic acid. Protein kinases which phosphorylated MBP in the gel were detected by autoradiography of the [γ^32P]-labeled MBP.

Caspase-3 = biological target: T1, Caspase-3 (Homo sapiens, UniProt P42574); assay: Inhibition of caspase-3 modification of immune complexes; format: biochemical; conditions: 5 μM inhibitor, 0.2 μg Caspase-3, 37° C., 30 min
T1 construct: purchased Alexis Biochemicals (San Diego, Calif.)
T1 sequence (P42574 29-175 limits assumed): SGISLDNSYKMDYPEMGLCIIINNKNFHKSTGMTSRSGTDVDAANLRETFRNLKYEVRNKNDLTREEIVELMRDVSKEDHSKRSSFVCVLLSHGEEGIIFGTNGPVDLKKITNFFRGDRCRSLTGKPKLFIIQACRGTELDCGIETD
Procedure: Both p63^Krsl and p33^QIK in 10 μg of cytosolic lysates (S20) were immunoprecipitated by Ab-KQ (lanes 2 to 4 and 6 to 8), followed by reatment with 0.2 μg Caspase-3 (C)(lanes 3, 4, 7 and 8) in the presence of 5 μM caspase inhibitor Z-D-CH2-DCB (C+I)(lanes 4 and 8) at 37° C. for 30 min. The kinase activities of p63^Krsl, p35, and p33^QIK in 5 μg of S20 (lanes 1 and 5) and in the immune complexes were determined by the in-gel kinase assay using MBP as a substrate. Bars indicate p63^Krsl p35, and p33^QIK.
Mouse 10T1/2 fibroblast cultures were maintained in Basal medium Eagle (BRL/GIBCO, Grand Island, N.Y.) supplemented with 10% heat-inactivated fetal bovine serum, 50 U/ml penicillin, and 5 μg/ml streptomycin, and cultivated at 37° C. Cells synchronized in quiescent state were growth-arrested by serum starvation for 48 hr. Actinomycin D (ActD), cycloheximide (CHXM), 12-0-tetradecanoylphorbol 13-acetate (TPA), staurosporine (STSP) (Sigma Chemical, St. Louis, Mo.), sodium fluoride (NaF), sodium orthovanadate (Na3VO4) (Fisher Scientific, Pittsburgh, Pa.), and FR901228 (FR)(NCI, Frederick, Md.) were diluted in cultured medium before treatment of cultured cells. […]

p44/42^Erk = format: cell-based, mouse
Procedure: as §1, §2, §3, §4

NIH3T3 cultures = assay: Cell death in quiescent NIH3T3 cultures; format: cell-based, mouse; conditions: quiescent cultures treated with ActD or CHXM for 3 hr
[1] = quiescent NIH3T3, absence of serum, 5 μg/ml ActD or 10 μg/ml CHXM, 1 or 3 hr
[2] = 5 μg/ml ActD or 10 μg/ml CHXM, 1 or 3 hr
[3] = quiescent NIH3T3 treated with serum or TPA in the presence of ActD or CHXM
[4] = quiescent NIH3T3 cultures (48 hr serum starvation) stimulated with reagent, 1-6 hr

| Molecule | induction of p33^QIK activity (p33^QIK) | kinase activity of p33^QIK (p33^QIK; [1]) | TPA-induced deactivation of p33^QIK (p33^QIK; [2]) | serum-induced down-regulation of p33^QIK activity (p33^QIK; [2]) | kinase activity of p44/42^Erk (p44/42^Erk; [3]) | cell death (NIH3T3 cultures) | further results |
| --- | --- | --- | --- | --- | --- | --- | --- |
| COC(=O)C[C@H](NC(=O)[C@H](C)NC(=O)[C@@H](NC(=O)OCc1ccccc1)C(C)C)C(=O)CF [Z-VAD-FMK] (Cbz-Val-Ala-Asp(OMe)-CH2F) | neither blocked induction of p33^QIK activity | – | – | – | – | – | – |
| O=C(O)CC(NC(=O)OCc1ccccc1)C(=O)COC(=O)c1c(Cl)cccc1Cl [Z-D-CH2-DCB, Z-Asp-[(2,6-dichlorobenzoyl)oxy]methane] | neither blocked induction of p33^QIK activity | – | – | – | – | – | blockage of caspase-3 induced changes in p63^Krsl, p35 and p33^QIK activity (Caspase-3): completely blocked |
| Cc1c2oc3c(C)ccc(C(=O)N[C@@H]4C(=O)N[C@H](C(C)C)C(=O)N5CCC[C@H]5C(=O)N(C)CC(=O)N(C)[C@@H](C(C)C)C(=O)O[C@@H]4C)c3nc-2c(C(=O)N[C@@H]2C(=O)N[C@H](C(C)C)C(=O)N3CCC[C@H]3C(=O)N(C)CC(=O)N(C)[C@@H](C(C)C)C(=O)O[C@@H]2C)c(N)c1=O [ActD, Actinomycin D] (I: T[dV]P[Sar][NMeV] / II: T[dV]P[Sar][NMeV]; ester I:1-I:C, II:1-II:C; linker I:N-II:N via Actinocin(9to1)) | – | significant increases of p33^QIK activity | blockage of the TPA-induced deactivation of p33^QIK but also in an increase in the kinase activity of p33^QIK | blocked the serum-induced down-regulation of p33^QIK activity | constant activation of p44/42^Erk | extensive cell death occurred | – |
| sodium orthovanadate [sodium vanadate] | – | – | – | – | – | – | kinase activity of p33^QIK (p33^QIK; [4]): accelerated deactivation of p33^QIK; kinase activity of p44/42^Erk (p44/42^Erk; [4]): profound and constant activation of p44/42^Erk |
| C[C@@H]1C[C@@H]([C@H](O)CC2CC(=O)NC(=O)C2)C(=O)[C@@H](C)C1 [CHXM, cycloheximide] | – | significant increases of p33^QIK activity | blockage of the TPA-induced deactivation of p33^QIK but also in an increase in the kinase activity of p33^QIK | blocked the serum-induced down-regulation of p33^QIK activity | constant activation of p44/42^Erk | extensive cell death occurred | – |
